Test results from patent publication US9796709B2, “5-hydroxy-4-(trifluoromethyl)pyrazolopyridine derivative” (Daiichi Sankyo Company, Limited, priority 2013, dated 2017).

Columns and labels:
LCAT = molecular target: T1, LCAT (Homo sapiens, UniProt P04180); assay: LCAT activity measurement (in vitro), [14C]cholesterol esterification with HDL3 fraction; type: biochemical; conditions: HDL3 fraction from plasma of a healthy person as enzyme source and acceptor; 37° C., approximately 16 hours; relative to sample without test drug; read-out: EC50 of LCAT activation
T1 construct: The obtained fraction was dialyzed against phosphate-buffered saline (pH 7.4) and used as an enzyme source and an acceptor for LCAT; from tissue; host or cells: HDL3 fraction (1.125 < specific gravity < 1.210 g/mL) of plasma from a healthy person
T1 sequence (P04180 25-440): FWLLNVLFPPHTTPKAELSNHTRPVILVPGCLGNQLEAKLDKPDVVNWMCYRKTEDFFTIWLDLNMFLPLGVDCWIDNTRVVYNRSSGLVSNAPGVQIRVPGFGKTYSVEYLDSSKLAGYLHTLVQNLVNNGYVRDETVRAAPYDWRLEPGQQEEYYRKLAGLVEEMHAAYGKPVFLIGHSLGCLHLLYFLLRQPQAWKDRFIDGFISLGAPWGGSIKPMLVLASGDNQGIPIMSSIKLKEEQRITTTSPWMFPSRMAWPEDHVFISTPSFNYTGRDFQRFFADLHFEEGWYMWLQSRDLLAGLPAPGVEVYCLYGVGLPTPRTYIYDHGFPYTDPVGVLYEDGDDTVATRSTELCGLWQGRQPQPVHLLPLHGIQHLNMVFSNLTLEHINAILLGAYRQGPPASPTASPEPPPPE
Protocol: A fraction composed of HDL3 (1.125 <specific gravity <1.210 g/mL) was obtained from the plasma of a healthy person by density gradient centrifugation. The obtained fraction was dialyzed against phosphate-buffered saline (pH 7.4) and used as an enzyme source and an acceptor for LCAT. Each test drug was prepared by dissolution in dimethyl sulfoxide. [^14C]Cholesterol containing DTNB (Ellman's reagent, final concentration: 0.5 mM), mercaptoethanol (final concentration: 12.5 mM), and 0.6% bovine serum albumin was added to phosphate-buffered saline (pH 7.4) containing 1 mg/mL HDL3, and the test drug was further added thereto at varying concentrations to adjust the whole amount to 80 μL. This mixture was incubated at 37° C. for approximately 16 hours. Then, a mixed solution of hexane and isopropanol (mixing ratio=3:2) was added thereto to stop the reaction. After stirring, the hexane layer was collected, and this layer was evaporated to dryness. A chloroform solution (concentration: 10 mg/mL) was added thereto, and the mixture was spotted onto a thin-layer silica gel plate and developed using a mixed solution of hexane, diethyl ether, and ethyl acetate (mixing ratio=85:15:2). The radioactivity of a portion corresponding to cholesterol oleate was measured using an imaging analyzer BAS-2500 (manufactured by Fujifilm Corp.). A sample non-supplemented with the test drug was similarly treated and assayed. The EC50 value of LCAT activation was calculated according to the expression given below relative to LCAT activity in the sample non-supplemented with the test drug.
[formula] • wherein X represents the logarithm of the concentration of the test drug; • Y represents the responsiveness (LCAT activity) of the test drug; • Top represents the maximum value (maximum plateau); • Bottom represents the minimum value (minimum plateau); and • EC50 represents the 50% effective concentration.

cynomolgus monkey = assay: Drug efficacy test in cynomolgus monkeys (plasma HDL cholesterol); type: in vivo; conditions: Macaca fascicularis, oral, single dose of 10 mg/kg, from AUC before administration and 24 hours after administration, read-out: Rate of increase in HDL level after administration of single dose
Protocol: Each test drug was dissolved in a propylene glycol (Sigma-Aldrich Corp.)-Tween 80 (Sigma-Aldrich Corp.) mixed solution [4/1 (v/v)] or a 0.5% (w/v) methylcellulose aqueous solution, and the solution was orally administered to a cynomolgus monkey for 1 or 7 days. At day 1 or 7 of the administration period, blood was collected before administration and after administration, and plasma was obtained. The content of cholesterol in the plasma was measured using a commercially available assay kit (Cholesterol-E Wako, Wako Pure Chemical Industries, Ltd.). The lipoprotein profile was analyzed by HPLC (column: LipopropakXL, manufactured by Tosoh Corp.). The contents of HDL cholesterol and non-HDL cholesterol were calculated according to the following calculation expression: Content of HDL cholesterol=Content of cholesterol in the plasma×(Peak area of HDL cholesterol/Total sum of peaks) Content of non-HDL cholesterol=Content of cholesterol in the plasma×(Peak area of non-HDL cholesterol/Total sum of peaks)

EC50 (LCAT) | Structure (SMILES) | change in vivo at 10 mg/kg (cynomolgus monkey)
63 nM | O=C1Nc2[nH]nc(C3CCN(c4cc(C(F)(F)F)ncn4)CC3)c2[C@@H](C(F)(F)F)[C@H]1O (single isomer, unassigned) [Example 30, (+)-cis-5-Hydroxy-4-(trifluoromethyl)-3-{1-[6-(trifluoromethyl)pyrimidin-4-yl]piperidin-4-yl}-1,4,5,7-tetrahydro-6H-pyrazolo[3,4-b]pyridin-6-one] | 290%
32 nM | O=C1Nc2[nH]nc(C3CCN(c4ccc(Cl)cn4)CC3)c2[C@@H](C(F)(F)F)[C@H]1O (single isomer, unassigned) [Example 22, (+)-cis-3-[1-(5-Chloropyridin-2-yl)piperidin-4-yl]-5-hydroxy-4-(trifluoromethyl)-1,4,5,7-tetrahydro-6H-pyrazolo[3,4-b]pyridin-6-one] | 581%
30 nM | N#Cc1ncc(N2CCC(c3n[nH]c4c3[C@@H](C(F)(F)F)[C@@H](O)C(=O)N4)CC2)cc1F (single isomer, unassigned) [Example 24, (+)-3-Fluoro-5-{4-[cis-5-hydroxy-6-oxo-4-(trifluoromethyl)-4,5,6,7-tetrahydro-1H-pyrazolo[3,4-b]pyridin-3-yl]piperidin-1-yl}pyridine-2-carbonitrile] | –
57 nM | O=C1Nc2[nH]nc(C3CCN(c4cc(C(=O)N5CCCCC5)c(C(F)(F)F)cn4)CC3)c2[C@@H](C(F)(F)F)[C@H]1O (racemic) [Example 33, cis-5-Hydroxy-3-{1-[4-(piperidin-1-ylcarbonyl)-5-(trifluoromethyl)pyridin-2-yl]piperidin-4-yl}-4-(trifluoromethyl)-1,4,5,7-tetrahydro-6H-pyrazolo[3,4-b]pyridin-6-one] | –
35 nM | O=C1Nc2[nH]nc(C3CCN(c4cnc(C(F)(F)F)nc4)CC3)c2[C@@H](C(F)(F)F)[C@H]1O (racemic) [Example 12, cis-5-Hydroxy-4-(trifluoromethyl)-3-{1-[2-(trifluoromethyl)pyrimidin-5-yl]piperidin-4-yl}-1,4,5,7-tetrahydro-6H-pyrazolo[3,4-b]pyridin-6-one] | –
7 nM | O=C(OCc1ccccc1)c1cc(N2CCC(c3n[nH]c4c3[C@@H](C(F)(F)F)[C@@H](O)C(=O)N4)CC2)ncc1C(F)(F)F (single isomer, unassigned) [Example 32, Benzyl (+)-2-{4-[cis-5-hydroxy-6-oxo-4-(trifluoromethyl)-4,5,6,7-tetrahydro-1H-pyrazolo[3,4-b]pyridin-3-yl]piperidin-1-yl}-5-(trifluoromethyl)pyridine-4-carboxylate] | –
70 nM | O=C1Nc2[nH]nc(C3CCN(c4cnc(C5CC5)nc4)CC3)c2[C@@H](C(F)(F)F)[C@H]1O (single isomer, unassigned) [Example 40, cis-3-[1-(2-cyclopropylpyrimidin-5-yl)piperidin-4-yl]-5-hydroxy-4-(trifluoromethyl)-1,4,5,7-tetrahydro-6H-pyrazolo[3,4-b]pyridin-6-one] | –

The remaining lines, values behind:

Structure (SMILES) | EC50 (LCAT) | change in vivo at 10 mg/kg (cynomolgus monkey)
O=C1Nc2[nH]nc(C3CCN(c4ccc(C(F)(F)F)cn4)CC3)c2[C@@H](C(F)(F)F)[C@H]1O (single isomer, unassigned) [Example 3, (+)-cis-5-Hydroxy-4-(trifluoromethyl)-3-{1-[5-(trifluoromethyl)pyridin-2-yl]piperidin-4-yl}-1,4,5,7-tetrahydro-6H-pyrazolo[3,4-b]pyridin-6-one] | 13 nM | 658%
N#Cc1cnc(N2CCC(c3n[nH]c4c3[C@@H](C(F)(F)F)[C@@H](O)C(=O)N4)CC2)cc1C(F)(F)F (single isomer, unassigned) [Example 20, (+)-6-{4-[cis-5-Hydroxy-6-oxo-4-(trifluoromethyl)-4,5,6,7-tetrahydro-1H-pyrazolo[3,4-b]pyridin-3-yl]piperidin-1-yl}-4-(trifluoromethyl)pyridine-3-carbonitrile] | 51 nM | 454%
CC(C)c1nc(N2CCC(c3n[nH]c4c3[C@@H](C(F)(F)F)[C@H](O)C(=O)N4)CC2)cc(C(F)(F)F)n1 (racemic) [Example 8, trans-5-Hydroxy-3-{1-[2-isopropyl-6-(trifluoromethyl)pyrimidin-4-yl]piperidin-4-yl}-4-(trifluoromethyl)-1,4,5,7-tetrahydro-6H-pyrazolo[3,4-b]pyridin-6-one] | 630 nM | –
O=C1Nc2[nH]nc(C3CCN(c4cnc(C(F)(F)F)nc4)CC3)c2[C@@H](C(F)(F)F)[C@H]1O (single isomer, unassigned) [Example 21, (+)-cis-5-Hydroxy-4-(trifluoromethyl)-3-{1-[2-(trifluoromethyl)pyrimidin-5-yl]piperidin-4-yl}-1,4,5,7-tetrahydro-6H-pyrazolo[3,4-b]pyridin-6-one] | 18 nM | 483%
O=C1Nc2[nH]nc(C3CCN(c4cnc(C(F)(F)F)cn4)CC3)c2[C@@H](C(F)(F)F)[C@H]1O (single isomer, unassigned) [Example 18, (+)-cis-5-Hydroxy-4-(trifluoromethyl)-3-{1-[5-(trifluoromethyl)pyrazin-2-yl]piperidin-4-yl}-1,4,5,7-tetrahydro-6H-pyrazolo[3,4-b]pyridin-6-one] | 9 nM | 644%
O=C1Nc2[nH]nc(C3CCN(c4ccc(C(F)(F)F)cn4)CC3)c2[C@@H](C(F)(F)F)[C@H]1O (racemic) [Example 2, cis-5-Hydroxy-4-(trifluoromethyl)-3-{1-[5-(trifluoromethyl)pyridin-2-yl]piperidin-4-yl}-1,4,5,7-tetrahydro-6H-pyrazolo[3,4-b]pyridin-6-one] | 40 nM | –
O=C1Nc2[nH]nc(C3CCN(c4ccc(C(F)(F)F)nn4)CC3)c2[C@@H](C(F)(F)F)[C@H]1O (racemic) [Example 7, cis-5-Hydroxy-4-(trifluoromethyl)-3-{1-[6-(trifluoromethyl)pyridazin-3-yl]piperidin-4-yl}-1,4,5,7-tetrahydro-6H-pyrazolo[3,4-b]pyridin-6-one] | 110 nM | –
O=C1Nc2[nH]nc(C3CCN(c4cc(C(F)(F)F)ccn4)CC3)c2[C@@H](C(F)(F)F)[C@H]1O (racemic) [Example 17, cis-5-Hydroxy-4-(trifluoromethyl)-3-{1-[4-(trifluoromethyl)pyridin-2-yl]piperidin-4-yl}-1,4,5,7-tetrahydro-6H-pyrazolo[3,4-b]pyridin-6-one] | 31 nM | –
O=C1Nc2[nH]nc(C3CCN(c4ccc(C(F)(F)F)nn4)CC3)c2[C@@H](C(F)(F)F)[C@@H]1O (racemic) [Example 6, trans-5-Hydroxy-4-(trifluoromethyl)-3-{1-[6-(trifluoromethyl)pyridazin-3-yl]piperidin-4-yl}-1,4,5,7-tetrahydro-6H-pyrazolo[3,4-b]pyridin-6-one] | 2220 nM | –
O=C1Nc2[nH]nc(C3CCN(c4ccnc(C(F)(F)F)n4)CC3)c2[C@@H](C(F)(F)F)[C@H]1O (single isomer, unassigned) [Example 25, (+)-cis-5-Hydroxy-4-(trifluoromethyl)-3-{1-[2-(trifluoromethyl)pyrimidin-4-yl]piperidin-4-yl}-1,4,5,7-tetrahydro-6H-pyrazolo[3,4-b]pyridin-6-one] | 100 nM | –
N#Cc1cnc(N2CCC(c3n[nH]c4c3[C@@H](C(F)(F)F)[C@@H](O)C(=O)N4)CC2)cc1C(F)(F)F (racemic) [Example 13, 6-{4-[cis-5-Hydroxy-6-oxo-4-(trifluoromethyl)-4,5,6,7-tetrahydro-1H-pyrazolo[3,4-b]pyridin-3-yl]piperidin-1-yl}-4-(trifluoromethyl)pyridine-3-carbonitrile] | 37 nM | –
